{"source": "patent US9402908B2", "about": "“Polymeric delivery systems for active agents” (priority 2008, dated 2016)", "conditions": "same protocol, no polymer"}
{"smiles": "C[C@@H]1[C@H](O)[C@@H](C)/C=C/C=C/C=C/C=C/C=C/C=C/C=C/[C@H](O[C@@H]2O[C@H](C)[C@@H](O)[C@H](N)[C@@H]2O)C[C@@H]2O[C@](O)(C[C@@H](O)C[C@@H](O)[C@H](O)CC[C@@H](O)C[C@@H](O)CC(=O)O[C@H]1C)C[C@H](O)[C@H]2C(=O)O", "note": "[Amphotericin B]", "values": [{"measurement": "water solubility of Amphotericin B", "result": "approx. 0.4 μg/mL"}]}
